Results on 16 molecules are retold here after patent US10393755B2, “Compositions and methods for treating eye infections and disease” (UNIVERSITY OF VIRGINIA PATENT FOUNDATION, priority 2014, dated 2019).

Substitutions are numbered along the chain they refer to. In names and notes the source's numbering stands. No end group written: not given here.

In data set [1] the test system is HCE-T cells. The data set can be described thus: Lacritin accelerated autophagy and FOXO3 phosphorylation, inhibitors. The format is cell-based, human. The procedure: Lacritin targeting of corneal sensory neurons. Adrenergic α2C selective antagonist MK912 inhibits lacritin accelerated autophagy in HCE-T cells, as does the syndecan-1 inhibitor xyloside. […] Activity profiles of corneal neurons before, during and 1 hr during/after 10 μM lacritin reveal a small inhibition (from ˜12 to ˜8 spikes/s) follows immediately after the application of lacritin presumably due to α2 adrenergic receptor activation which inhibits TRPM8 channels. Removal of this inhibition after 1 hr of lacritin and washout causes an enhanced excitation of dry (from ˜20 to ˜23 spikes/s) and wet response (from ˜12 to ˜16 spikes/s).

Data set [2] is classed as in vitro ADME, human. The procedure: A limitation of most synthetic peptide drugs is their protease sensitivity. […] Retropepsin would inactivate LACRIPEP, while cathepsin K would have no effect. However neither protease is found in normal human tears. Nonetheless, tears are rich in other proteases. We therefore incubated LACRIPEP in normal human tears at 37° C. for 2, 4, 6 and 16 hr. For immunoblotting, we first removed all endogenous lacritin by immunodepletion. […] (FIG. 6B).

Data set [3] relates to bacteria. The data set can be described thus: Lacritin inhibition (colony count) assay, bacterium not given. The format is cell-based. The conditions noted are these: synthetic peptides. The procedure:
(§1) Bacterial Growth, SYTOX Green Assays, and on Column Cleavage—E. coli (ATCC (Manassas Va.) catalog no. 10536), S. epidermidis (ATCC catalog no. 12228), and P. aeruginosa (ATCC catalog no. 9027) were grown to mid-log phase in 50 ml of Luria-Bertani (LB) medium and washed three times in phosphate buffer containing 10 mM NaCl (pH 7.2; PB—NaCl) with centrifugation. Pellets were resuspended in 1 ml of PB—NaCl.
(§2) For lacritin inhibition assays, 50 ul of bacterial pellets each diluted 1:100 in PB—NaCl were incubated for 1.5 h (37° C.) with 100 ul of lacritin, lacritin truncations, or synthetic peptides at a final concentration of 0.1-6 uM. Mixtures were diluted 1:10 in PB—NaCl before plating 100 ul in quadruplicate on LB agar plates for overnight growth at 37° C. Colonies were manually counted. In other experiments, mid-log E. coli was treated at 37° C. for 0, 1, 2, or 3 h with 2 uM lacritin or lacritin truncations or with ampicillin (5 uM) or tetracycline (2 uM). After each treatment, 100 ul was centrifuged, resuspended in 1 ml of PB—NaCl, and plated (100 ul) onto LB agar for overnight growth (37° C.) and colony counting.

The subject of data set [4] is HCE-T cells. The data set can be described thus: Viability (MTT) / cytoprotection of IFNG/TNF stressed cells. The format is cell-based, human. The following applies: for Cytoprotective activity of lacritin truncation and point mutants: 10 nM, IFNG/TNF stressed cells. The procedure:
Viability was monitored using the 3-(4,5-dimethyl[…])-2,5-diphenyltetrazolium bromide) (MTT) reduction assay (Invitrogen) or a Nucleocounter (New Brunswick Scientific, Edison, N.J.). Cells were seeded overnight in 24-well plates at a density of 500 cells/mm2 to give rise to ˜80% confluence the next day. Then cells were sensitized overnight in IFNG (100 units/ml) in α-MEM and treated in triplicate for 15 min with 10 nm lacritin or lacritin deletion or point mutants or with different lacritin doses in α-MEM together with TNF as described above.
Inclusion of inhibitors was simultaneous with the addition of lacritin or C-25 in all viability and other experiments except where otherwise noted. Inhibitors included PI103 (0.5 μm; EMD, Darmstadt, Germany), rapamycin (10 and 100 nm; EMD), and cyclosporin A (0.1 μm; EMD). One exception was 4-methylumbelliferyl-β-d-xylopyranoside (“xyloside”; 70 and 80 nm; Sigma), which was added during IFNG sensitization and during treatment with TNF and lacritin. The assay was completed by addition of MTT (5 mg/ml) to each well (at 37° C. for 4 h) followed by isopropanol with 0.04 n HCl and measurement at 570 nm using a reference wavelength of 630 nm. Viability was assayed in a Nucleocounter (New Brunswick Scientific).

Data set [5] has as its system E. coli. The data set can be described thus: Lacritin inhibition (colony count) assay, E. coli. The following applies: dose response studies; read-out: Half-maximal inhibition. The format is cell-based. The procedure: as §1, §2
The test system of data set [6] is P. aeruginosa. Briefly: Lacritin inhibition (colony count) assay, P. aeruginosa. The format is cell-based. The conditions noted are these: dose response studies; read-out: Half-maximal inhibition. The procedure:
as §1, §2

The test system of data set [7] is HCE-T cells. The data set can be described thus: FOXO3 translocation assay in IFNG/TNF stressed HCE-T cells. The format is cell-based, human. The following applies: 10 nM, interferon-γ and TNF stressed HCE-T cells. The procedure: For FOXO3 translocation assays, HCE-T cells were grown in triplicate to subconfluence (˜50%) on coverslips in α-MEM (5.54 mm glucose), sensitized overnight in IFNG (100 units/ml; Roche Applied Science), and treated for 15 min with normal or dry eye tears diluted 1:100 in α-MEM together with TNF (50 ng/ml; PeproTech, Rocky Hill, N.J.) without or with 10 nm lacritin or C-25. Cells were washed, fixed with 4% paraformaldehyde, and immunostained for FOXO3 (1:200; Millipore, Billerica, Mass.) followed by goat anti-rabbit secondary antibody and visualization on a Zeiss LSM 700 microscope.

Data set [8] concerns the target T1, syndecan-1 (Homo sapiens, UniProt P18827, L136Q).
T1 sequence (P18827 23-310 L136Q): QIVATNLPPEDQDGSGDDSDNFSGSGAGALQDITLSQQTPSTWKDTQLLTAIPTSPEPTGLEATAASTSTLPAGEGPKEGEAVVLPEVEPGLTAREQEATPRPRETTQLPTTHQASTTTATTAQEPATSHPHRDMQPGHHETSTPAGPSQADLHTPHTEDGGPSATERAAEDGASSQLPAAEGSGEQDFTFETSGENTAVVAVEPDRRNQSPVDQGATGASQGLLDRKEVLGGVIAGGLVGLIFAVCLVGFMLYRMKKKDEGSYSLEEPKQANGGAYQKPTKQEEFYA
The data set can be described thus: Binding to syndecan-1.

The nature of data set [9]: Phase behavior and nanoparticle formation (optical density, DLS, TEM). The format is physicochemical. The conditions noted are these: optical density. The procedure:
The phase diagram for LSI fusion protein was characterized by optical density change at 350 nm as a function of solution temperature using a DU800 UV-Vis Spectrophotometer (Beckman Coulter, Brea, Calif.). Tt was defined at the point of the maximum first derivative. Self-assembly of nanoparticles was measured using dynamic light scattering (DLS) using a DynaPro-LSR Plate Reader (Wyatt Technology, Santa Barbara, Calif.). Light scattering data were collected at regular temperature intervals (1° C.) as solutions were heated from 5 to 50° C. The results were analyzed using a Rayleigh sphere model and fitted into a cumulant algorithm based on the sum-of-squares value.
The TEM imaging was carried out on a FEI Tecnai 12 TWIN microscope (Hillsboro, Oreg.) at 100 kV. Briefly, a 100 uM solution (5 uL) was initially deposited on a copper grid with carbon film (CF400-Cu, Election Microscopy Sciences, Hatfield, Pa.). After removing the excess amount of solution with filter paper, the samples were negatively stained with 2% uranyl acetate, followed by removing excess uranyl acetate after 30 s. b The samples were then dried under room temperature for at least 3 h before use in imaging.

Turning to `CN1CC[C@]2(CCN3CCc4c(oc5ccccc45)[C@@H]3C2)N(C)C1=O` [MK912], the “Effect on lacritin stimulated FOXO3 phosphorylation” value in data set [1] was “inhibit”. Moreover, the “Effect on lacritin accelerated autophagy” value in data set [1] (HCE-T cells) was “inhibits”.

For the molecule “Ac-KQFIENGSEFAQKLLKKFSLLKPWA (N-terminus assumed) [LACRIPEP]”, the “Time stable in human tears (immunoblot)” value in data set [2] is “at least 16 hr”.

Consider “LKSIVEKSILLTEQALAKAGKGMH (listed as Homo sapiens) [N-64/C-31]”, for which the “Colonies with synthetic peptides” value in [3] is “colonies were abundant”.

On to `Cc1cc(=O)oc2cc(O[C@@H]3OC[C@@H](O)[C@H](O)[C@H]3O)ccc12` [xyloside, 4-methylumbelliferyl-β-d-xylopyranoside], for which the “Effect on lacritin cytoprotective activity” value in [4] (cells cultured overnight in xyloside) is recorded as “completely abrogated”. In [1], the “Effect on lacritin stimulated FOXO3 phosphorylation” value is “inhibit”.

For the molecule “AKAGKGMHGGVPGG (listed as Homo sapiens) [N-80/C-25]”, the “Colonies with synthetic peptides” value in data set [3] is given as “colonies were abundant”.

With “Ac-KQFIENGSEFAQKLLKKFS-NH2 [N-94/C-6, KQFIENGSEFAQKLLKKFS]”, the “Activity of synthetic peptide relative to lacritin” value in [4] (generated synthetically) is “as potent as lacritin”. Also, in [2], the “Epitopes by immunoblotting after incubation in tears” value is given as “loses epitopes”. Also, in data set [2], the “Stability relative to LACRIPEP” value was “not as stable”. For the same molecule, the “Bactericidal activity of synthetic peptides” value in data set [3] is recorded as “slightly so”; in data set [3] (listed as SEQ ID NO: 5) it was “substantially reduced the bactericidal activity”.

With FAQKLLKKFSLLKPWA [N-104], the IC50 in data set [5] is around 1000 nM; in [6] it was 1000 to 1500 nM. Also, the “Bactericidal activity of synthetic peptides” value in [3] is “fully active”.

B1: Cross-linked lacritin: lacritin monomer cross-linked into inactive multimers by tissue transglutaminase (protein)
chain: EDASSDSTGADPAQEAGTSKPNEEISGPAEPASPPETTTTAQETSAAAVQGTAKVTSSRQELNPLKSIVEKSILLTEQALAKAGKGMHGGVPGGKQFIENGSEFAQKLLKKFSLLKPWA
For the molecule B1, the “FOXO3 cytoplasmic staining (pro-survival activity)” value in [7] is “less active”; in [7] (listed as tissue transglutaminase polymerized lacritin) it was “inactive”. Also, in [8], the “Binding to syndecan-1” value is reported as “substantially less”.

B2: I73S: lacritin point mutant (protein, UniProt Q9GZZ8 20-138, looked up, variant I73S)
Extracellular glycoprotein …: B1 chain with I73S
As to B2, the “Cytoprotective activity of lacritin truncation and point mutants” value in data set [4] is reported as “unaffected”.

B3: F104S: lacritin point mutant (protein, UniProt Q9GZZ8 20-138, looked up, variant F104S)
Extracellular glycoprotein …: B1 chain with F104S
As for B3, the “Cytoprotective activity of lacritin truncation and point mutants” value in [4] is on record as “significantly less active”.

B4: L65S: lacritin point mutant (protein, UniProt Q9GZZ8 20-138, looked up, variant L65S)
Extracellular glycoprotein …: B1 chain with L65S
On to B4, for which the “Cytoprotective activity of lacritin truncation and point mutants” value in data set [4] was “unaffected”.

B5: F112S: lacritin point mutant (protein, UniProt Q9GZZ8 20-138, looked up, variant F112S)
Extracellular glycoprotein …: B1 chain with F112S
Regarding B5, the “Cytoprotective activity of lacritin truncation and point mutants” value in [4] is recorded as “significantly less active”.

B6: I98S: lacritin point mutant (protein, UniProt Q9GZZ8 20-138, looked up, variant I98S)
Extracellular glycoprotein …: B1 chain with I98S
Turning to B6, in [4], the “Cytoprotective activity of lacritin truncation and point mutants” value is “significantly less active”.

B7: L108S/L109S/F112S: lacritin triple point mutant (protein, UniProt Q9GZZ8 20-138, looked up, variant L108S L109S F112S)
Extracellular glycoprotein …: B1 chain with L108S, L109S, F112S
B7: the “Cytoprotective activity of lacritin truncation and point mutants” value in [4] was “significantly less active”.

B8: V69S: lacritin point mutant (protein, UniProt Q9GZZ8 20-138, looked up, variant V69S)
Extracellular glycoprotein …: B1 chain with V69S
B8: the “Cytoprotective activity of lacritin truncation and point mutants” value in [4] is given as “unaffected”.

B9: LS96: lacritin fused to soluble ELP (VPGSG)96; thermally nonresponsive control (protein)
chain: GEDASSDSTGADPAQEAGTSKPNEEISGPAEPASPPETTTTAQETSAAAVQGTAKVTSSRQELNPLKSIVEKSILLTEQALAKAGKGMHGGVPGGKQFIENGSEFAQKLLKKFSLLKPWAGLVPRGSGVPGSGY
modifications: ELP lacritin fusion construct; (129)..(133) the sequence VPGSG is directly repeated 96 times
notes: lacritin fused to soluble ELP (VPGSG)96; thermally nonresponsive control
Regarding B9, the “Phase transitions in phosphate buffered saline” value in data set [9] is “does not display any observable phase transitions”.
